Consider 32 compounds from patent US8962631B2 (Vertex Pharmaceuticals Incorporated, priority 2010, dated 2015).

The target of one assay is T1, full-length ATR (Homo sapiens, UniProt Q13535).
T1 construct: Assays were carried out at 25° C. in the presence of 5 nM full-length ATR
T1 sequence (Q13535 whole entry): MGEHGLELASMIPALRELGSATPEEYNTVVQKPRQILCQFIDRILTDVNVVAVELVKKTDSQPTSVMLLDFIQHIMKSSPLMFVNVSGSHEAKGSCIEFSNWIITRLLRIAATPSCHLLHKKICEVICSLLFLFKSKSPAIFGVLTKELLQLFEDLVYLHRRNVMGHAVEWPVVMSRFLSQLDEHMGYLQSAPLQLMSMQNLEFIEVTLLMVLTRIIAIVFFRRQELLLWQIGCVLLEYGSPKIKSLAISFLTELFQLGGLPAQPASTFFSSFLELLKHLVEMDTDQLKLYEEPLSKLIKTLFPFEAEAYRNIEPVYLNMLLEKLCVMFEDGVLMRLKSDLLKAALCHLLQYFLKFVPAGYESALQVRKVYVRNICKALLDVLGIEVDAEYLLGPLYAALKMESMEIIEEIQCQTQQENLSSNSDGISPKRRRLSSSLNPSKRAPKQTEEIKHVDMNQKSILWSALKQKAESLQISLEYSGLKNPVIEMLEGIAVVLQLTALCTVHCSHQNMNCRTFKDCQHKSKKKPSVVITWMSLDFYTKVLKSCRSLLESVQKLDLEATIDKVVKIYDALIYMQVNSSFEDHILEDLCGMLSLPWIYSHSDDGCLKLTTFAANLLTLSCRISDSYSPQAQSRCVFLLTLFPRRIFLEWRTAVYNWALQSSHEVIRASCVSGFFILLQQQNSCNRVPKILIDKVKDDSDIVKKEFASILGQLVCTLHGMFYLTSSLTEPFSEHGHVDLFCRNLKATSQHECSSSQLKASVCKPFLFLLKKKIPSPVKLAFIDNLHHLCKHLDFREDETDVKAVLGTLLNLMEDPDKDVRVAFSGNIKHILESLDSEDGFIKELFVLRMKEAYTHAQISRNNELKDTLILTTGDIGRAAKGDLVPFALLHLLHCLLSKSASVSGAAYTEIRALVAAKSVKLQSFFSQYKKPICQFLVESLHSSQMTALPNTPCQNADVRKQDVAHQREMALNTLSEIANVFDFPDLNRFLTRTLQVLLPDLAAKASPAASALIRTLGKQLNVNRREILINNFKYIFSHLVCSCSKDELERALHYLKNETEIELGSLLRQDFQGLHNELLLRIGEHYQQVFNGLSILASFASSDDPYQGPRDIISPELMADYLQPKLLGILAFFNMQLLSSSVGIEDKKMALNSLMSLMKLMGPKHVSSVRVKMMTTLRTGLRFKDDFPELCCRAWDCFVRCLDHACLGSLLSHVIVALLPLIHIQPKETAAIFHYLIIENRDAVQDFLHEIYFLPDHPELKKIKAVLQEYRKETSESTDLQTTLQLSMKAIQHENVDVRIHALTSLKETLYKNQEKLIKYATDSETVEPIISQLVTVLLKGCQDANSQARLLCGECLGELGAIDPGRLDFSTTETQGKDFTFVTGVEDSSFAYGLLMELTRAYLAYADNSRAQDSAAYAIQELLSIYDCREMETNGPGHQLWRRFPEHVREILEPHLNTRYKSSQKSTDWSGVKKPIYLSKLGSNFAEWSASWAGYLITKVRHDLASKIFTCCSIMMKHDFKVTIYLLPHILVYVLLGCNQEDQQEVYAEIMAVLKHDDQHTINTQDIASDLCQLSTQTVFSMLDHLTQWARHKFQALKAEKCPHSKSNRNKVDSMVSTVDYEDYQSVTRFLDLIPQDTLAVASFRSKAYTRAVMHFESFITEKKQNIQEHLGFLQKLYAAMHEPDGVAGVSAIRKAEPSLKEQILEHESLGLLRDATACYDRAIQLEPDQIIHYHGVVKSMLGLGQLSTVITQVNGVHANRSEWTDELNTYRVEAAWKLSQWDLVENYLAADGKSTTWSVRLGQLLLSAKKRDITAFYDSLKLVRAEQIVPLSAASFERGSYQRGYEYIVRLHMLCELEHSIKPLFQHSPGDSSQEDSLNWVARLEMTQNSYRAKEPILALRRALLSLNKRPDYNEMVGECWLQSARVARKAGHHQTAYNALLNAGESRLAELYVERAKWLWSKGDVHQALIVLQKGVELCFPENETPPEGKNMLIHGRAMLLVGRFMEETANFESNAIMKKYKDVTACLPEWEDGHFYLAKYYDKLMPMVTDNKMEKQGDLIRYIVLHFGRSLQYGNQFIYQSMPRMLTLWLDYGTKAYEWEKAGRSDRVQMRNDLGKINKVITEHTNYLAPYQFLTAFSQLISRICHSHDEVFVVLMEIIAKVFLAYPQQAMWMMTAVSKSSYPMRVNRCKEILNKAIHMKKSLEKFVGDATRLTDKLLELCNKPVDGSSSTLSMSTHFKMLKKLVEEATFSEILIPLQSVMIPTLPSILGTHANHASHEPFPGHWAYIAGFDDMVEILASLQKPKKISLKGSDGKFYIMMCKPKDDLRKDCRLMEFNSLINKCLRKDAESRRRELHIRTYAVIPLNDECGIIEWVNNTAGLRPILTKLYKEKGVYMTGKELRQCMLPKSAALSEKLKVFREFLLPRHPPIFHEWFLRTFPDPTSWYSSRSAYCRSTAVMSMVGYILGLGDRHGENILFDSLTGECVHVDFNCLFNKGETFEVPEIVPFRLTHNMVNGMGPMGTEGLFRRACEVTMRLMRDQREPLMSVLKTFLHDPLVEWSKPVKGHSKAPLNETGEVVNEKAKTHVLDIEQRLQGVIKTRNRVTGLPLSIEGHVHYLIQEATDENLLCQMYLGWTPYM
Put plainly: ATR Inhibition Assay (radioactive-phosphate incorporation). Type of assay: biochemical. The note with it: Ki(app); 10 μM ATP, 800 μM target peptide, 5 nM full-length ATR, 25° C. The procedure: Compounds were screened for their ability to inhibit ATR kinase using a radioactive-phosphate incorporation assay. Assays were carried out in a mixture of 50 mM Tris/HCl (pH 7.5), 10 mM MgCl2 and 1 mM DTT. Final substrate concentrations were 10 μM [γ-33P]ATP (3 mCi 33P ATP/mmol ATP, Perkin Elmer) and 800 μM target peptide ([…] (SEQ. ID NO: 1)).
Assays were carried out at 25° C. in the presence of 5 nM full-length ATR. An assay stock buffer solution was prepared containing all of the reagents listed above, with the exception of ATP and the test compound of interest. 13.5 μL of the stock solution was placed in a 96 well plate followed by addition of 2 μL of DMSO stock containing serial dilutions of the test compound (typically starting from a final concentration of 15 μM with 3-fold serial dilutions) in duplicate (final DMSO concentration 7%). The plate was pre-incubated for 10 minutes at 25° C. and the reaction initiated by addition of 15 μL [γ-33P]ATP (final concentration 10 μM).
The reaction was stopped after 24 hours by the addition of 30 μL 0.1M phosphoric acid containing 2 mM ATP. A multiscreen phosphocellulose filter 96-well plate (Millipore, Cat no. MAPHN0B50) was pretreated with 100 μL 0.2M phosphoric acid prior to the addition of 45 μL of the stopped assay mixture. The plate was washed with […] 0.2M phosphoric acid. After drying, 100 μL Optiphase ‘SuperMix’ liquid scintillation cocktail (Perkin Elmer) was added to the well prior to scintillation counting (1450 Microbeta Liquid Scintillation Counter, Wallac).
After removing mean background values for all of the data points, Ki(app) data were calculated from non-linear regression analysis of the initial rate data using the Prism software package (GraphPad Prism version 3.0cx for Macintosh, GraphPad Software, San Diego Calif., USA).
Regarding `Cc1ccc2nc(-c3nc(C(=O)N(C)CC#N)cnc3N)[nH]c2c1` [II-76, 5-Amino-N-(cyanomethyl)-N-methyl-6-(6-methyl-1H-benzimidazol-2-yl)pyrazine-2-carboxamide], the Ki lay within 1 to 8 µM.

Turning to `Cc1ccc2nc(-c3nc(C(=O)NCCC(F)(F)F)cnc3N)[nH]c2c1` [II-73, 5-Amino-6-(6-methyl-1H-benzimidazol-2-yl)-N-(3,3,3-trifluoropropyl)pyrazine-2-carboxamide], the Ki lay in the range of 0.5 to 1 µM.

Regarding `Nc1ncc(Nc2ccccc2)nc1C(=O)Nc1ccccc1` [II-1, 3-Amino-6-anilino-N-phenyl-pyrazine-2-carboxamide], the Ki is at most 0.5 µM.

As for `Cc1ccc2nc(-c3nc(Oc4ccc(O)cc4)cnc3N)[nH]c2c1` [II-24, 4-[5-Amino-6-(6-methyl-1H-benzimidazol-2-yl)pyrazin-2-yl]oxyphenol], the Ki lay in the range of 1 to 8 µM.

As to `Cc1ccc2nc(-c3nc(C#CCNC(N)=O)cnc3N)[nH]c2c1` [II-86, 3-[5-Amino-6-(6-methyl-1H-benzimidazol-2-yl)pyrazin-2-yl]prop-2-ynylurea], the Ki was 1 to 8 µM.

For `Nc1ncc(Nc2ccncc2)nc1C(=O)Nc1ccccc1` [II-6, 3-Amino-N-phenyl-6-(4-pyridylamino)pyrazine-2-carboxamide], the Ki is at most 0.5 µM.

Turning to `COCCNC(=O)c1cnc(N)c(-c2nc3ccc(C)cc3[nH]2)n1` [II-71, 5-Amino-N-(2-methoxyethyl)-6-(6-methyl-1H-benzimidazol-2-yl)pyrazine-2-carboxamide], the Ki lay in the range of 1 to 8 µM.

With `Cc1ccc2nc(-c3nc(Oc4ccc(F)cc4)cnc3N)[nH]c2c1` [II-23, 5-(4-Fluorophenoxy)-3-(6-methyl-1H-benzimidazol-2-yl)pyrazin-2-amine], the Ki fell in the range of 1 to 8 µM.

`Cc1ccc2nc(-c3nc(C#CCO)cnc3N)[nH]c2c1` [II-82, 3-[5-Amino-6-(6-methyl-1H-benzimidazol-2-yl)pyrazin-2-yl]prop-2-yn-1-ol]: the Ki lay within 0.5 to 1 µM.

Turning to `Cc1ccc2nc(-c3nc(C(=O)NCC#N)cnc3N)[nH]c2c1` [II-48, 5-Amino-N-(cyanomethyl)-6-(6-methyl-1H-benzimidazol-2-yl)pyrazine-2-carboxamide], the Ki was at most 0.5 µM.

`Cc1ccc2nc(-c3nc(C(=O)N[C@@H](C)c4ccccc4)cnc3N)[nH]c2c1` [II-59, 5-Amino-6-(6-methyl-1H-benzimidazol-2-yl)-N-[(1S)-1-phenylethyl]pyrazine-2-carboxamide]: the Ki was in the range of 0.5 to 1 µM.

For the compound `N#CCNC(=O)c1cnc(N)c(-c2nc3ccccc3[nH]2)n1` [II-75, 5-Amino-6-(1H-benzimidazol-2-yl)-N-(cyanomethyl)pyrazine-2-carboxamide], the Ki is at most 0.5 µM.

As to `Cc1ccc2nc(-c3nc(C(=O)NCC4CCCO4)cnc3N)[nH]c2c1` (centres unmarked) [II-52, 5-Amino-6-(6-methyl-1H-benzimidazol-2-yl)-N-(tetrahydrofuran-2-ylmethyl)pyrazine-2-carboxamide], the Ki was at most 0.5 µM.

As to `Nc1ncc(Oc2cccnc2)nc1-c1nc2ccccc2[nH]1` [II-12, 3-(1H-Benzimidazol-2-yl)-5-(3-pyridyloxy)pyrazin-2-amine], the Ki was 1 to 8 µM.

Turning to `COCC#Cc1cnc(N)c(-c2nc3ccc(C)cc3[nH]2)n1` [II-83, 5-(3-Methoxyprop-1-ynyl)-3-(6-methyl-1H-benzimidazol-2-yl)pyrazin-2-amine], the Ki lay within 0.5 to 1 µM.

With `Nc1ncc(Sc2cccc(Cl)c2)nc1-c1nc2ccccc2[nH]1` [II-39, 3-(1H-Benzimidazol-2-yl)-5-(3-chlorophenyl)sulfanyl-pyrazin-2-amine], the Ki fell in the range of 1 to 8 µM.

Regarding `Cc1ccc2nc(-c3nc(C(=O)NCC(=O)C(C)(C)C)cnc3N)[nH]c2c1` [II-62, 5-Amino-N-(3,3-dimethyl-2-oxo-butyl)-6-(6-methyl-1H-benzimidazol-2-yl)pyrazine-2-carboxamide], the Ki lay within 1 to 8 µM.

`Cc1ccc2nc(-c3nc(OC4CCOC4)cnc3N)[nH]c2c1` (centres unmarked) [II-32, 3-(6-Methyl-1H-benzimidazol-2-yl)-5-tetrahydrofuran-3-yloxy-pyrazin-2-amine]: the Ki fell in the range of 0.5 to 1 µM.

Regarding `Cc1ccc2nc(-c3nc(C(=O)NCc4ccco4)cnc3N)[nH]c2c1` [II-68, 5-Amino-N-(2-furylmethyl)-6-(6-methyl-1H-benzimidazol-2-yl)pyrazine-2-carboxamide], the Ki fell in the range of 0.5 to 1 µM.

For the compound `Cc1ccc2nc(-c3nc(C(=O)NCC(C)O)cnc3N)[nH]c2c1` (centres unmarked) [II-67, 5-Amino-N-(2-hydroxypropyl)-6-(6-methyl-1H-benzimidazol-2-yl)pyrazine-2-carboxamide], the Ki lay in the range of 1 to 8 µM.

As for `Cc1ccc2nc(-c3nc(C(=O)NC(C)c4ccccc4)cnc3N)[nH]c2c1` (stereo in doubt) [II-57, 5-Amino-6-(6-methyl-1H-benzimidazol-2-yl)-N-[(1R)1-phenylethyl]pyrazine-2-carboxamide], the Ki is 1 to 8 µM.

Turning to `Cc1ccc2nc(-c3nc(Oc4c(F)cccc4F)cnc3N)[nH]c2c1` [II-22, 5-(2,6-Difluorophenoxy)-3-(6-methyl-1H-benzimidazol-2-yl)pyrazin-2-amine], the Ki lay within 1 to 8 µM.

For the compound `CC(=O)Nc1cccc(Oc2cnc(N)c(-c3nc4ccccc4[nH]3)n2)c1` [II-9, N-[3-[5-Amino-6-(1H-benzimidazol-2-yl)pyrazin-2-yl]oxyphenyl]acetamide], the Ki lay in the range of 1 to 8 µM.

On to `Cc1ccc2nc(-c3nc(Oc4ccccc4C#N)cnc3N)[nH]c2c1` [II-20, 2-[5-Amino-6-(6-methyl-1H-benzimidazol-2-yl)pyrazin-2-yl]oxybenzonitrile], for which the Ki was in the range of 0.5 to 1 µM.

In the case of `Cc1ccc2nc(-c3nc(C(=O)NC4CCC4)cnc3N)[nH]c2c1` [II-74, 5-Amino-N-cyclobutyl-6-(6-methyl-1H-benzimidazol-2-yl)pyrazine-2-carboxamide], the Ki lay in the range of 1 to 8 µM.

As to `Cc1ccc2nc(-c3nc(NC(=O)CC#N)cnc3N)[nH]c2c1` [II-92, N-(5-Amino-6-(6-methyl-1H-benzo[d]imidazol-2-yl)pyrazin-2-yl)-2-cyanoethanamide], the Ki was 0.5 to 1 µM.

Turning to `Nc1ncc(O[C@@H]2CC[C@@H](O)C2)nc1-c1nc2ccccc2[nH]1` (relative stereo) [II-36, trans-3-((5-Amino-6-(1H-benzo[d]imidazol-2-yl)pyrazin-2-yl)oxy)cyclopentanol], the Ki is 0.5 to 1 µM.

For `COC(=O)c1cnc(N)c(-c2nc3ccc(C)cc3[nH]2)n1` [II-47, Methyl 5-amino-6-(6-methyl-1H-benzo[d]imidazol-2-yl)pyrazine-2-carboxylate], the Ki is at most 0.5 µM.

The assay is the same for the next values; noted with them: at 15 uM compound; read-out: percent inhibition against ATR.
The inhibition is the percentage by which the read-out fell short of the control. On to `COc1ccc(Oc2cnc(N)c(-c3nc4ccc(C)cc4[nH]3)n2)cc1` [II-19, 5-(4-Methoxyphenoxy)-3-(6-methyl-1H-benzimidazol-2-yl)pyrazin-2-amine], for which the inhibition at 15 µM fell in the range of 25 to 45%.

In the case of `Cc1ccc2nc(-c3nc(C(=O)NC4CCCC4)cnc3N)[nH]c2c1` [II-72, 5-Amino-N-cyclopentyl-6-(6-methyl-1H-benzimidazol-2-yl)pyrazine-2-carboxamide], the inhibition at 15 µM lay within 15 to 24%.

For the compound `Cc1ccc2nc(-c3nc(OCCN4CCCCC4)cnc3N)[nH]c2c1` [II-27, 3-(6-Methyl-1H-benzimidazol-2-yl)-5-[2-(1-piperidyl)ethoxy]pyrazin-2-amine], the inhibition at 15 µM is 25 to 45%.

The assay is the same for the next values; noted with them: at 60 uM compound; read-out: percent inhibition of ATR.
As for `Cc1ccc2nc(-c3nc(Oc4cccc(Oc5ccccc5)c4)cnc3N)[nH]c2c1` [II-28, 3-(6-Methyl-1H-benzimidazol-2-yl)-5-(3-phenoxyphenoxy)pyrazin-2-amine], the inhibition at 60 µM was 10%.
